# Test results: patent US9067977B2, “Peptides derivatized with A-B-C-D- and their therapeutical use” (Novo Nordisk A/S, priority 2007, dated 2015)
# Starred links: 1 amine or outer side, 2 acyl side, 3 side chain; linkers in the order of their positions; H or OH if unused. Non-standard residues stand in square brackets, D forms with d. Residues, ends and D or L forms follow the SMILES beside them. Groups on a side chain read outwards from the residue. *: point of attachment. C20 diacid = O=C(O)CCCCCCCCCCCCCCCCCCC(=O)*; C18 diacid = O=C(O)CCCCCCCCCCCCCCCCC(=O)*; d(βAsp) = O=C(O)[C@@H](CC(=O)[*:2])N[*:1]; γGlu = O=C(O)[C@H](CCC(=O)[*:2])N[*:1]; 2Nal = N[C@@H](Cc1ccc2ccccc2c1)C(=O)O; AEEA = NCCOCCOCC(=O)O; Aib = CC(C)(N)C(=O)O; Inp = O=C(O)C1CCNCC1
# Target: human serum albumin (HSA) (Homo sapiens, UniProt P02768)
# Assay: Albumin binding affinity, competition scintillation proximity assay
# Procedure: Streptavidin-SPA beads (GE Healthcare RPNQ0009) were incubated with biotinylated HSA for 5 hours. The beads were washed with buffer to remove unbound HSA. […] After 20 hours of gentle rocking at room temperature the plates were centrifuged and counted on a TopCounter.
# human serum albumin (HSA), sequence (P02768 25-609): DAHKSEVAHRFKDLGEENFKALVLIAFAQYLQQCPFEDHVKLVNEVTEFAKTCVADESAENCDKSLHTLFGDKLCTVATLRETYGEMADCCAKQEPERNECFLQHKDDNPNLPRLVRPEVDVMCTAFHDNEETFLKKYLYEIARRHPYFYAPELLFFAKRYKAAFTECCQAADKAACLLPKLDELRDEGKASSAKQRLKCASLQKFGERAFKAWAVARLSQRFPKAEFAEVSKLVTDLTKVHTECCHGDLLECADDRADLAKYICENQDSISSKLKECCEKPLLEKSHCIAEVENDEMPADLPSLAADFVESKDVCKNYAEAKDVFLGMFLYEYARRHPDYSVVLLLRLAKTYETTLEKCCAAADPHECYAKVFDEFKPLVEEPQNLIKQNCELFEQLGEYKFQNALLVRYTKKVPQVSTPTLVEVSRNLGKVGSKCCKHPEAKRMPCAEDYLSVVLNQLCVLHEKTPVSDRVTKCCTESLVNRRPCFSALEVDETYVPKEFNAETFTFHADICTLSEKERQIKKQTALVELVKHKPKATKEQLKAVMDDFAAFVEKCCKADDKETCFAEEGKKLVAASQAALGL
"EC50 at 20 h (human, biotinylated human serum albumin on streptavidin-SPA beads, pH 7.4) [nM]",EC50 [nM],SMILES
–,100 to 150,CC[C@H](C)[C@H](NC(=O)[C@H](Cc1ccccc1)NC(=O)[C@H](CCC(=O)O)NC(=O)[C@H](CCCCNC(=O)COCCOCCNC(=O)COCCOCCNC(=O)CC[C@H](NC(=O)C1CCN(C(=O)CCCCCCCCCCCCCCCCCCC(=O)O)CC1)C(=O)O)NC(=O)[C@H](C)NC(=O)[C@H](C)NC(=O)[C@H](CCC(N)=O)NC(=O)[C@H](CCC(=O)O)NC(=O)[C@H](CCC(=O)O)NC(=O)[C@H](CC(C)C)NC(=O)[C@H](Cc1ccc(O)cc1)NC(=O)[C@H](CO)NC(=O)[C@H](CO)NC(=O)[C@@H](NC(=O)[C@H](CC(=O)O)NC(=O)[C@H](CO)NC(=O)[C@@H](NC(=O)[C@H](Cc1ccccc1)NC(=O)[C@@H](NC(=O)CNC(=O)[C@H](CCC(=O)O)NC(=O)C(C)(C)NC(=O)[C@@H](N)Cc1c[nH]cn1)[C@@H](C)O)[C@@H](C)O)C(C)C)C(=O)N[C@@H](C)C(=O)N[C@@H](Cc1c[nH]c2ccccc12)C(=O)N[C@@H](CC(C)C)C(=O)N[C@H](C(=O)N[C@@H](CCC(N)=O)C(=O)NCC(=O)N[C@@H](CCCNC(=N)N)C(=O)NCC(=O)O)C(C)C [Example 69] (H-H[Aib]EGTFTSDVSSYLEEQAAK([AEEA-AEEA-γGlu-Inp-C20 diacid])EFIAWLVQGRG-OH)
–,800 to 2000,"CC[C@H](C)[C@H](NC(=O)[C@H](Cc1ccc2ccccc2c1)NC(=O)[C@H](CCC(=O)O)NC(=O)[C@H](CCCNC(=N)N)NC(=O)[C@H](C)NC(=O)[C@H](C)NC(=O)[C@H](CCC(N)=O)NC(=O)CNC(=O)[C@H](CCC(=O)O)NC(=O)[C@H](CCCCNC(=O)COCCOCCNC(=O)COCCOCCNC(=O)C[C@@H](NC(=O)C1CCN(C(=O)CCCCCCCCCCCCCCCCC(=O)O)CC1)C(=O)O)NC(=O)[C@H](Cc1ccc(O)cc1)NC(=O)[C@H](CO)NC(=O)[C@H](CO)NC(=O)[C@@H](NC(=O)[C@H](CC(=O)O)NC(=O)[C@H](CO)NC(=O)[C@@H](NC(=O)[C@H](Cc1ccccc1)NC(=O)[C@@H](NC(=O)CNC(=O)[C@H](CCC(=O)O)NC(=O)C(C)(C)NC(=O)[C@@H](N)Cc1c[nH]cn1)[C@@H](C)O)[C@@H](C)O)C(C)C)C(=O)N[C@@H](CCC(=O)O)C(=O)N[C@@H](Cc1c[nH]c2ccccc12)C(=O)N[C@@H](CC(C)C)C(=O)N[C@H](C(=O)N[C@@H](CCCCN)C(=O)NCC(=O)N[C@@H](CCCNC(=N)N)C(=O)NCC(N)=O)C(C)C [Example 11, N-ε^20({2-[2-(2-{2-[2-((R)-3-carboxy-3-{[1-(17-carboxyheptadecanoyl)piperidine-4-carbonyl]amino}propionylamino)ethoxy]ethoxy}acetylamino)ethoxy]ethoxy}acetyl) [Aib^8,Lys^20,Arg^26,2-Naphtylalanine^28, Glu^30]GLP-1 (7-37)amide] (H-H[Aib]EGTFTSDVSSYK([AEEA-AEEA-d(βAsp)-Inp-C18 diacid])EGQAARE[2Nal]IEWLVKGRG-NH2; N-terminus assumed)"

# The next lines start with the compound.
SMILES,"EC50 at 20 h (human, biotinylated human serum albumin on streptavidin-SPA beads, pH 7.4) [nM]",EC50 [nM]
"CC[C@H](C)[C@H](NC(=O)[C@H](Cc1ccccc1)NC(=O)[C@H](CCC(=O)O)NC(=O)[C@H](CCCNC(=N)N)NC(=O)[C@H](C)NC(=O)[C@H](C)NC(=O)[C@H](CCC(N)=O)NC(=O)CNC(=O)[C@H](CCC(=O)O)NC(=O)[C@H](CC(C)C)NC(=O)[C@H](Cc1ccc(O)cc1)NC(=O)[C@H](CO)NC(=O)[C@H](CO)NC(=O)[C@@H](NC(=O)[C@H](CC(=O)O)NC(=O)[C@H](CO)NC(=O)[C@@H](NC(=O)[C@H](Cc1ccccc1)NC(=O)[C@@H](NC(=O)CNC(=O)[C@H](CCC(=O)O)NC(=O)[C@H](C)NC(=O)CCc1c[nH]cn1)[C@@H](C)O)[C@@H](C)O)C(C)C)C(=O)N[C@@H](C)C(=O)N[C@@H](Cc1c[nH]c2ccccc12)C(=O)N[C@@H](CC(C)C)C(=O)N[C@H](C(=O)N[C@@H](CCCNC(=N)N)C(=O)NCC(=O)N[C@@H](CCCNC(=N)N)C(=O)N[C@@H](CCCCNC(=O)COCCOCCNC(=O)CC[C@H](NC(=O)CC[C@H](NC(=O)CCCCCCCCCCCNC(=O)CCCS(=O)(=O)NC(=O)CCCCCCCCCCCCCCCc1nnn[nH]1)C(=O)O)C(=O)O)C(=O)O)C(C)C [Example 65, N-epsilon37-[2-(2-{2-[(S)-4-Carboxy-4-((S)-4-carboxy-4-{12-[4-(16-(1H-tetrazol-5-yl)hexadecanoylsulfamoyl)butyrylamino]dodecanoylamino}butyrylamino)butyrylamino]ethoxy}ethoxy)acetyl][DesaminoHis7,Arg26,Arg34,Lys37]GLP-1-(7-37)]",1 to 100,–
"CC[C@H](C)[C@H](NC(=O)[C@H](Cc1ccccc1)NC(=O)[C@H](CCC(=O)O)NC(=O)[C@H](CCCNC(=N)N)NC(=O)[C@H](C)NC(=O)[C@H](C)NC(=O)[C@H](CCC(N)=O)NC(=O)CNC(=O)[C@H](CCC(=O)O)NC(=O)[C@H](CCCCNC(=O)COCCOCCNC(=O)COCCOCCNC(=O)C[C@@H](NC(=O)C1CCN(C(=O)CCCCCCCCCCCCCCCCC(=O)O)CC1)C(=O)O)NC(=O)[C@H](Cc1ccc(O)cc1)NC(=O)[C@H](CO)NC(=O)[C@H](CO)NC(=O)[C@@H](NC(=O)[C@H](CC(=O)O)NC(=O)[C@H](CO)NC(=O)[C@@H](NC(=O)[C@H](Cc1ccc2ccccc2c1)NC(=O)[C@@H](NC(=O)CNC(=O)[C@H](CCC(=O)O)NC(=O)C(C)(C)NC(=O)[C@@H](N)Cc1c[nH]cn1)[C@@H](C)O)[C@@H](C)O)C(C)C)C(=O)N[C@@H](CCC(=O)O)C(=O)N[C@@H](Cc1c[nH]c2ccccc12)C(=O)N[C@@H](CC(C)C)C(=O)N[C@H](C(=O)N[C@@H](CCCCN)C(=O)NCC(=O)N[C@@H](CCCNC(=N)N)C(=O)NCC(N)=O)C(C)C [Example 13, N-ε^20({2-[2-(2-{2-[2-((R)-3-carboxy-3-{[1-(17-carboxyheptadecanoyl)piperidine-4-carbonyl]amino}propionylamino)ethoxy]ethoxy}acetylamino)ethoxy]ethoxy}acetyl) [Aib^8,Lys^20,Arg^26,2-Naphtylalanine^12, Glu^30]GLP-1-(7-37)amide] (H-H[Aib]EGT[2Nal]TSDVSSYK([AEEA-AEEA-d(βAsp)-Inp-C18 diacid])EGQAAREFIEWLVKGRG-NH2; N-terminus assumed)",–,150 to 300
CC[C@H](C)[C@H](NC(=O)[C@H](Cc1ccccc1)NC(=O)[C@H](CCC(=O)O)NC(=O)[C@H](CCCNC(=N)N)NC(=O)[C@H](C)NC(=O)[C@H](C)NC(=O)[C@H](CCC(N)=O)NC(=O)CNC(=O)[C@H](CCC(=O)O)NC(=O)[C@H](CC(C)C)NC(=O)[C@H](Cc1ccc(O)cc1)NC(=O)[C@H](CO)NC(=O)[C@H](CO)NC(=O)[C@@H](NC(=O)[C@H](CC(=O)O)NC(=O)[C@H](CO)NC(=O)[C@@H](NC(=O)[C@H](Cc1ccccc1)NC(=O)[C@@H](NC(=O)CNC(=O)[C@H](CCC(=O)O)NC(=O)[C@H](C)NC(=O)CCc1cnc[nH]1)[C@@H](C)O)[C@@H](C)O)C(C)C)C(=O)N[C@@H](C)C(=O)N[C@@H](Cc1c[nH]c2ccccc12)C(=O)N[C@@H](CC(C)C)C(=O)N[C@H](C(=O)N[C@@H](CCCNC(=N)N)C(=O)NCC(=O)N[C@@H](CCCNC(=N)N)C(=O)NCC(=O)N[C@@H](CCCCNC(=O)COCCOCCNC(=O)COCCOCCNC(=O)CC[C@H](NC(=O)[C@H]1CC[C@H](CNC(=O)CCCCCCCCCCCCCCCCCCC(=O)O)CC1)C(=O)O)C(N)=O)C(C)C [Example 28],–,> 2000
